Results as given in ChEMBL document CHEMBL1201862, “PubChem BioAssay data set” (2004).
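Protocol summary: plate cells (96-well), add compound at 5 concentrations, incubate 48 h, interpolate endpoints linearly. The concentration for 50% growth inhibition is given as GI50.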 Calls of active or inactive are those of the source. No stated cut-off is given here; in the data, active = GI50 up to about 1.1 µM and inactive = higher.

Legend:
Assay in all cases: DTP human tumour cell line panel, 48 h
CCRF-CEM = test system: CCRF-CEM
TK-10 = test system: TK-10
SNB-75 = test system: SNB-75
HOP-92 = test system: HOP-92
NCI-H23 = test system: NCI-H23
A498 = test system: A498
OVCAR-8 = test system: OVCAR-8
DLD-1 = test system: DLD-1
LXFL 529 = test system: LXFL 529
SK-MEL-28 = test system: SK-MEL-28
UACC-62 = test system: UACC-62
NCI-H226 = test system: NCI-H226
SW-620 = test system: SW-620
A549 = test system: A549
SK-OV-3 = test system: SK-OV-3
XF498 = test system: XF498
HOP-62 = test system: HOP-62
786-0 = test system: 786-0
OVCAR-4 = test system: OVCAR-4
ACHN = test system: ACHN
NCI-H522 = test system: NCI-H522
UACC-257 = test system: UACC-257
NCI-H460 = test system: NCI-H460
IGROV-1 = test system: IGROV-1
HCC 2998 = test system: HCC 2998
SN12C = test system: SN12C
UO-31 = test system: UO-31
HT-29 = test system: HT-29
DMS-273 = test system: DMS-273
SF-295 = test system: SF-295
RXF 393 = test system: RXF 393
K562 = test system: K562
OVCAR-3 = test system: OVCAR-3
KM12 = test system: KM12
M14 = test system: M14
LOX IMVI = test system: LOX IMVI
SNB-78 = test system: SNB-78
CAKI-1 = test system: CAKI-1
SF-268 = test system: SF-268
HCT-116 = test system: HCT-116
Malme-3M = test system: Malme-3M
OVCAR-5 = test system: OVCAR-5
SK-MEL-5 = test system: SK-MEL-5
MOLT-4 = test system: MOLT-4
SNB-19 = test system: SNB-19
SK-MEL-2 = test system: SK-MEL-2
SR = test system: SR
HL-60 = test system: HL-60
U-251 = test system: U-251
RPMI-8226 = test system: RPMI-8226
SF-539 = test system: SF-539
EKVX = test system: EKVX
MDA-N = test system: MDA-N
COLO 205 = test system: COLO 205
Hs-578T = test system: Hs-578T
BT-549 = test system: BT-549
MDA-MB-231 = test system: MDA-MB-231
DU-145 = test system: DU-145
MDA-MB-435 = test system: MDA-MB-435
T47D = test system: T47D
MCF7 = test system: MCF7
NCI/ADR-RES = test system: NCI/ADR-RES
HCT-15 = test system: HCT-15
PC-3 = test system: PC-3

Nn1c(=O)n(Cc2ccccc2)n(-c2ccccc2)c1=O
GI50 (CCRF-CEM): > 100 µM (inactive)
GI50 (TK-10): > 100 µM (inactive)
GI50 (SNB-75): 74.1 µM (inactive)
GI50 (HOP-92): > 100 µM (inactive)
GI50 (NCI-H23): > 100 µM (inactive)
GI50 (A498): > 100 µM (inactive)
GI50 (OVCAR-8): > 100 µM (inactive)
GI50 (DLD-1): > 100 µM (inactive)
GI50 (LXFL 529): > 100 µM (inactive)
GI50 (SK-MEL-28): > 100 µM (inactive)
GI50 (UACC-62): > 100 µM (inactive)
GI50 (NCI-H226): > 100 µM (inactive)
GI50 (SW-620): > 100 µM (inactive)
GI50 (A549): > 100 µM (inactive)
GI50 (SK-OV-3): > 100 µM (inactive)
GI50 (XF498): > 100 µM (inactive)
GI50 (HOP-62): > 100 µM (inactive)
GI50 (786-0): > 100 µM (inactive)
GI50 (OVCAR-4): > 100 µM (inactive)
GI50 (ACHN): > 100 µM (inactive)
GI50 (NCI-H522): > 100 µM (inactive)
GI50 (UACC-257): > 100 µM (inactive)
GI50 (NCI-H460): > 100 µM (inactive)
GI50 (IGROV-1): > 100 µM (inactive)
GI50 (HCC 2998): > 100 µM (inactive)
GI50 (SN12C): > 100 µM (inactive)
GI50 (UO-31): > 100 µM (inactive)
GI50 (HT-29): > 100 µM (inactive)
GI50 (DMS-273): > 100 µM (inactive)
GI50 (SF-295): > 100 µM (inactive)
GI50 (RXF 393): > 100 µM (inactive)
GI50 (K562): > 100 µM (inactive)
GI50 (OVCAR-3): > 100 µM (inactive)
GI50 (KM12): > 100 µM (inactive)
GI50 (M14): > 100 µM (inactive)
GI50 (LOX IMVI): > 100 µM (inactive)
GI50 (SNB-78): > 100 µM (inactive)
GI50 (CAKI-1): > 100 µM (inactive)
GI50 (SF-268): > 100 µM (inactive)
GI50 (HCT-116): > 100 µM (inactive)
GI50 (Malme-3M): > 100 µM (inactive)
GI50 (OVCAR-5): > 100 µM (inactive)
GI50 (SK-MEL-5): > 100 µM (inactive)
GI50 (MOLT-4): > 100 µM (inactive)
GI50 (SNB-19): > 100 µM (inactive)
GI50 (SK-MEL-2): > 100 µM (inactive)
GI50 (SR): > 100 µM (inactive)
GI50 (HL-60): > 100 µM (inactive)
GI50 (U-251): > 100 µM (inactive)
GI50 (RPMI-8226): > 100 µM (inactive)
GI50 (SF-539): > 100 µM (inactive)

CCOC(=O)[C@H](O)[C@@H](O)C(=O)NCc1ccc(C(=O)c2ccccc2)cc1
GI50 (EKVX): > 100 µM (inactive)
GI50 (CCRF-CEM): > 100 µM (inactive)
GI50 (TK-10): > 100 µM (inactive)
GI50 (SNB-75): > 100 µM (inactive)
GI50 (MDA-N): > 100 µM (inactive)
GI50 (COLO 205): > 100 µM (inactive)
GI50 (HOP-92): > 100 µM (inactive)
GI50 (NCI-H23): > 100 µM (inactive)
GI50 (A498): > 100 µM (inactive)
GI50 (OVCAR-8): > 100 µM (inactive)
GI50 (SK-MEL-28): > 100 µM (inactive)
GI50 (UACC-62): > 100 µM (inactive)
GI50 (NCI-H226): > 100 µM (inactive)
GI50 (SW-620): > 100 µM (inactive)
GI50 (Hs-578T): > 100 µM (inactive)
GI50 (A549): > 100 µM (inactive)
GI50 (SK-OV-3): > 100 µM (inactive)
GI50 (BT-549): > 100 µM (inactive)
GI50 (HOP-62): > 100 µM (inactive)
GI50 (786-0): > 100 µM (inactive)
GI50 (MDA-MB-231): > 100 µM (inactive)
GI50 (OVCAR-4): > 100 µM (inactive)
GI50 (DU-145): > 100 µM (inactive)
GI50 (ACHN): > 100 µM (inactive)
GI50 (NCI-H522): > 100 µM (inactive)
GI50 (UACC-257): > 100 µM (inactive)
GI50 (NCI-H460): > 100 µM (inactive)
GI50 (IGROV-1): > 100 µM (inactive)
GI50 (MDA-MB-435): > 100 µM (inactive)
GI50 (HCC 2998): > 100 µM (inactive)
GI50 (SN12C): > 100 µM (inactive)
GI50 (UO-31): > 100 µM (inactive)
GI50 (HT-29): > 100 µM (inactive)
GI50 (T47D): > 100 µM (inactive)
GI50 (MCF7): > 100 µM (inactive)
GI50 (SF-295): > 100 µM (inactive)
GI50 (RXF 393): > 100 µM (inactive)
GI50 (K562): > 100 µM (inactive)
GI50 (OVCAR-3): > 100 µM (inactive)
GI50 (NCI/ADR-RES): > 100 µM (inactive)
GI50 (KM12): > 100 µM (inactive)
GI50 (M14): > 100 µM (inactive)
GI50 (LOX IMVI): > 100 µM (inactive)
GI50 (CAKI-1): > 100 µM (inactive)
GI50 (SF-268): > 100 µM (inactive)
GI50 (HCT-116): > 100 µM (inactive)
GI50 (Malme-3M): > 100 µM (inactive)
GI50 (OVCAR-5): > 100 µM (inactive)
GI50 (HCT-15): > 100 µM
GI50 (SK-MEL-5): > 100 µM (inactive)
GI50 (MOLT-4): > 100 µM (inactive)
GI50 (SNB-19): > 100 µM (inactive)
GI50 (SK-MEL-2): > 100 µM (inactive)
GI50 (SR): > 100 µM (inactive)
GI50 (PC-3): > 100 µM (inactive)
GI50 (HL-60): > 100 µM (inactive)
GI50 (U-251): > 100 µM (inactive)
GI50 (RPMI-8226): > 100 µM (inactive)
GI50 (SF-539): > 100 µM (inactive)
